The supplement of paper PMC11061612

Legend:
Carboplatin = compound: C1CC(C1)(C(=O)[O-])C(=O)[O-].N.N.[Pt+2] [Carboplatin]; details: max 10 µM
In short: (§1)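 Plates with 1536 wells received cancer cell lines in 7.5 μl of DMEM/F12 or RPMI containing 10% FBS. After 24 hours at 37°C and 5% CO2, cells were dosed for 72 hours with final DMSO typically 0.2%, and viability was read by CellTiter-Glo 2.0 luminescence scaled between blank-well and DMSO-well means. The single-agent IC50 was taken from a logistic fit of the dose responses made with a non-linear mixed effects model, that logistic curve having two parameters.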

AZD5363 = compound: C1CN(CCC1(C(=O)N[C@@H](CCO)C2=CC=C(C=C2)Cl)N)C3=NC=NC4=C3C=CN4 [AZD5363]; details: max 10 µM
In short: as §1

AZD1775 = compound: C=CCn1c(=O)c2cnc(Nc3ccc(N4CCN(C)CC4)cc3)nc2n1-c1cccc(C(C)(C)O)n1 [AZD1775]; details: max 3 µM
In short: as §1

Trametinib = compound: CC(=O)Nc1cccc(-n2c(=O)n(C3CC3)c(=O)c3c(Nc4ccc(I)cc4F)n(C)c(=O)c(C)c32)c1 [Trametinib]; details: max 1 µM
In short: as §1

Paclitaxel = compound: CC(=O)O[C@H]1C(=O)[C@@]2(C)[C@H]([C@H](OC(=O)c3ccccc3)[C@]3(O)C[C@H](OC(=O)[C@H](O)[C@@H](NC(=O)c4ccccc4)c4ccccc4)C(C)=C1C3(C)C)[C@]1(OC(C)=O)CO[C@@H]1C[C@@H]2O [Paclitaxel]; details: max 3 µM
In short: as §1

Palbociclib = compound: CC(=O)c1c(C)c2cnc(Nc3ccc(N4CCNCC4)cn3)nc2n(C2CCCC2)c1=O [Palbociclib]; details: max 10 µM
In short: as §1

AZD1390 = compound: CC(C)n1c(=O)n(C)c2cnc3cc(F)c(-c4ccc(OCCCN5CCCCC5)nc4)cc3c21 [AZD1390]; details: max 0.3 µM
In short: as §1

Venetoclax = compound: CC1(C)CCC(CN2CCN(c3ccc(C(=O)NS(=O)(=O)c4ccc(NCC5CCOCC5)c([N+](=O)[O-])c4)c(Oc4cnc5[nH]ccc5c4)c3)CC2)=C(c2ccc(Cl)cc2)C1 [Venetoclax]; details: max 1 µM
In short: as §1

Dasatinib = compound: CC1=C(C(=CC=C1)Cl)NC(=O)C2=CN=C(S2)NC3=CC(=NC(=N3)C)N4CCN(CC4)CCO [Dasatinib]; details: max 2 µM
In short: as §1

SG3199 = compound: CC1=CN2[C@@H](C1)C=NC3=CC(=C(C=C3C2=O)OC)OCCCCCOC4=C(C=C5C(=C4)N=C[C@@H]6CC(=CN6C5=O)C)OC [SG3199]; details: max 0.001 µM
In short: as §1

AZD2811 = compound: CCN(CCO)CCCOc1ccc2c(Nc3cc(CC(=O)Nc4cccc(F)c4)[nH]n3)ncnc2c1 [AZD2811]; details: max 1 µM
In short: as §1

SN-38 = compound: CCc1c2c(nc3ccc(O)cc13)-c1cc3c(c(=O)n1C2)COC(=O)[C@]3(O)CC [SN-38]; details: max 0.3 µM
In short: as §1

AZD0156 = compound: CN(C)CCCOc1ccc(-c2ccc3ncc4c(c3c2)n(C2CCOCC2)c(=O)n4C)cn1 [AZD0156]; details: max 3 µM
In short: as §1

AZD4320 = compound: CN(CC[C@H](CSC1=CC=CC=C1)NC2=C(C=C(C=C2)S(=O)(=O)NC(=O)C3=CC=C(C=C3)N4CCC(CC4)[C@H](C5=CC=CC=C5C6=CC=C(C=C6)Cl)O)S(=O)(=O)C(F)(F)F)CCO [AZD4320]; details: max 1 µM
In short: as §1

Alisertib = compound: COc1cc(Nc2ncc3c(n2)-c2ccc(Cl)cc2C(c2c(F)cccc2OC)=NC3)ccc1C(=O)O [Alisertib]; details: max 10 µM
In short: as §1

Etoposide = compound: COc1cc([C@@H]2c3cc4c(cc3[C@@H](O[C@@H]3O[C@@H]5CO[C@@H](C)O[C@H]5[C@H](O)[C@H]3O)[C@H]3COC(=O)[C@H]23)OCO4)cc(OC)c1O [Etoposide]; details: max 10 µM
In short: as §1

Gefitinib = compound: COc1cc2ncnc(Nc3ccc(F)c(Cl)c3)c2cc1OCCCN1CCOCC1 [Gefitinib]; details: max 10 µM
In short: as §1

Prexasertib = compound: COc1cccc(OCCCN)c1-c1cc(Nc2cnc(C#N)cn2)n[nH]1 [Prexasertib]; details: max 1 µM
In short: as §1

Doxorubicin = compound: COc1cccc2c1C(=O)c1c(O)c3c(c(O)c1C2=O)C[C@@](O)(C(=O)CO)C[C@@H]3O[C@H]1C[C@H](N)[C@H](O)[C@H](C)O1 [Doxorubicin]; details: max 1 µM
In short: as §1

AZD5153 = compound: COc1nnc2ccc(N3CCC(c4ccc(OCCN5CCN(C)C(=O)[C@H]5C)cc4)CC3)nn12 [AZD5153]; details: max 1 µM
In short: as §1

Lapatinib = compound: CS(=O)(=O)CCNCc1ccc(-c2ccc3ncnc(Nc4ccc(OCc5cccc(F)c5)c(Cl)c4)c3c2)o1 [Lapatinib]; details: max 10 µM
In short: as §1

AZD8186 = compound: C[C@@H](Nc1cc(F)cc(F)c1)c1cc(C(=O)N(C)C)cc2c(=O)cc(N3CCOCC3)oc12 [AZD8186]; details: max 10 µM
In short: as §1

Crizotinib = compound: C[C@@H](Oc1cc(-c2cnn(C3CCNCC3)c2)cnc1N)c1c(Cl)ccc(F)c1Cl [Crizotinib]; details: max 10 µM
In short: as §1

Savolitinib = compound: C[C@@H](c1ccc2nccn2c1)n1nnc2ncc(-c3cnn(C)c3)nc21 [Savolitinib]; details: max 1 µM
In short: as §1

AZD6738 = compound: C[C@@H]1COCCN1C2=NC(=NC(=C2)C3(CC3)[S@](=N)(=O)C)C4=C5C=CNC5=NC=C4 [AZD6738]; details: max 10 µM
In short: as §1

AZD5991 = compound: Cc1c2c(nn1C)CSCc1cc(n(C)n1)CSc1cc(c3ccccc3c1)OCCCc1c(C(=O)O)n(C)c3c-2c(Cl)ccc13 [AZD5991]; details: max 1 µM
In short: as §1

AZD7648 = compound: Cc1cc2ncnn2cc1Nc1ncc2c(n1)n(C1CCOCC1)c(=O)n2C [AZD7648]; details: max 10 µM
In short: as §1

Taselisib = compound: Cc1nc(-c2cn3c(n2)-c2ccc(-c4cnn(C(C)(C)C(N)=O)c4)cc2OCC3)n(C(C)C)n1 [Taselisib]; details: max 10 µM
In short: as §1

Selumetinib = compound: Cn1cnc2c(F)c(Nc3ccc(Br)cc3Cl)c(C(=O)NOCCO)cc21 [Selumetinib]; details: max 10 µM
In short: as §1

SRA737 = compound: N#Cc1cnc(Nc2cc(NC[C@H]3CNCCO3)c(C(F)(F)F)cn2)cn1 [SRA737]; details: max 10 µM
In short: as §1

MK-2206 = compound: NC1(c2ccc(-c3nc4ccn5c(=O)[nH]nc5c4cc3-c3ccccc3)cc2)CCC1 [MK-2206]; details: max 10 µM
In short: as §1

Gemcitabine = compound: Nc1ccn([C@@H]2O[C@H](CO)[C@@H](O)C2(F)F)c(=O)n1 [Gemcitabine]; details: max 0.3 µM
In short: as §1

[1] = compound: O=C(Nc1ccc2[nH]nc(-c3ccncc3)c2c1)[C@@H]1CCN(CC(=O)N2CCN(c3ccc(-c4ncccn4)cc3)CC2)C1; details: max 5 µM
In short: as §1

Olaparib = compound: O=C(c1cc(Cc2n[nH]c(=O)c3ccccc23)ccc1F)N1CCN(C(=O)C2CC2)CC1 [Olaparib]; details: max 10 µM
In short: as §1

5-Fluorouracil = compound: O=c1[nH]cc(F)c(=O)[nH]1 [5-Fluorouracil]; details: max 20 µM
In short: as §1

Row | Cell Line | IC50, cell viability 72 h (Carboplatin) [nM] | IC50, cell viability 72 h (AZD5363) [nM] | IC50, cell viability 72 h (AZD1775) [nM] | IC50, cell viability 72 h (Trametinib) [nM] | IC50, cell viability 72 h (Paclitaxel) [nM] | IC50, cell viability 72 h (Palbociclib) [nM] | IC50, cell viability 72 h (AZD1390) [nM] | IC50, cell viability 72 h (Venetoclax) [nM] | IC50, cell viability 72 h (Dasatinib) [nM] | IC50, cell viability 72 h (SG3199) [nM] | IC50, cell viability 72 h (AZD2811) [nM] | IC50, cell viability 72 h (SN-38) [nM] | IC50, cell viability 72 h (AZD0156) [nM] | IC50, cell viability 72 h (AZD4320) [nM] | IC50, cell viability 72 h (Alisertib) [nM] | IC50, cell viability 72 h (Etoposide) [nM] | IC50, cell viability 72 h (Gefitinib) [nM] | IC50, cell viability 72 h (Prexasertib) [nM] | IC50, cell viability 72 h (Doxorubicin) [nM] | IC50, cell viability 72 h (AZD5153) [nM] | IC50, cell viability 72 h (Lapatinib) [nM] | IC50, cell viability 72 h (AZD8186) [nM] | IC50, cell viability 72 h (Crizotinib) [nM] | IC50, cell viability 72 h (Savolitinib) [nM] | IC50, cell viability 72 h (AZD6738) [nM] | IC50, cell viability 72 h (AZD5991) [nM] | IC50, cell viability 72 h (AZD7648) [nM] | IC50, cell viability 72 h (Taselisib) [nM] | IC50, cell viability 72 h (Selumetinib) [nM] | IC50, cell viability 72 h (SRA737) [nM] | IC50, cell viability 72 h (MK-2206) [nM] | IC50, cell viability 72 h (Gemcitabine) [nM] | IC50, cell viability 72 h [1] [nM] | IC50, cell viability 72 h (Olaparib) [nM] | IC50, cell viability 72 h (5-Fluorouracil) [nM]
1 | LK-2 (Squamous Cell Lung Carcinoma) | > 10000 | > 10000 | 295 | 349 | 5.55 | > 10000 | > 300 | > 1000 | > 2000 | > 1 | 55.1 | 199 | > 3000 | > 1000 | 60.6 | 9260 | > 10000 | 137 | > 1000 | > 1000 | > 10000 | > 10000 | 5710 | > 1000 | > 10000 | > 1000 | > 10000 | > 10000 | > 10000 | > 10000 | > 10000 | 277 | 1930 | > 10000 | > 20000
2 | PSN1 (Pancreatic Carcinoma) | > 10000 | > 10000 | 1630 | 18.6 | 61.9 | > 10000 | > 300 | > 1000 | 244 | > 1 | > 1000 | 110 | > 3000 | > 1000 | > 10000 | 8600 | > 10000 | > 1000 | > 1000 | > 1000 | > 10000 | > 10000 | 7760 | > 1000 | > 10000 | > 1000 | > 10000 | 5380 | 952 | > 10000 | > 10000 | 33.6 | 193 | > 10000 | 7840
3 | SHP-77 (Small Cell Lung Carcinoma) | > 10000 | > 10000 | 1800 | > 1000 | 76.3 | > 10000 | > 300 | > 1000 | > 2000 | > 1 | > 1000 | > 300 | > 3000 | > 1000 | > 10000 | > 10000 | > 10000 | 102 | > 1000 | > 1000 | > 10000 | > 10000 | > 10000 | > 1000 | > 10000 | > 1000 | > 10000 | > 10000 | > 10000 | > 10000 | > 10000 | 169 | > 5000 | > 10000 | 14800
